Measurements published in article PMC10179937, “Cytotoxic Activity, Topoisomerase I Inhibition and In Silico Studies of New Sesquiterpene-aryl Ester Derivatives of (-) Drimenol” (Molecules, 2023).
Like-named read-outs stand apart in the source and are kept apart here.

Legend:
[1] = test system: MCF-7 (breast adenocarcinoma); assay: Sulforhodamine B in vitro growth inhibition assay, MCF-7; assay type: cell-based, human; conditions: for Selectivity Index (SI) MCF-10/MCF-7: IC50 in non-cancerogenic cell line / IC50 in cancer cell line; for IC50: Homo sapiens, MCF7, sulforhodamine B assay, 72 h of treatment, IC50 ± SD
Description: (§1) For this purpose, a colorimetric sulforhodamine B assay was performed to quantify the cytotoxic effect through their respective IC50 values. Each compound’s serial dilutions (12.5, 25, 50, and 100 µM) were evaluated in triplicate. In our study, the human cancer cell lines used were MCF-7 (breast adenocarcinoma); HT-29 (colorectal adenocarcinoma); PC-3 (prostate adenocarcinoma); and MCF-10 control cells (normal breast epithelium). For comparative purposes, the literature IC50 values of daunorubicin and 5-fluorouracil (5-FU), measured in the same cell lines and under the same experimental conditions, were included. Similarly, drimenol (1) was included for comparative purposes.
(§2) The sulforhodamine B assay was used. Briefly, the cells were set up at 5 × 10^3 cells per well of a 96-well microplate for 18 h. Cells were incubated at 37 °C in a humidified 5% CO2/95% air mixture and treated with the compounds at different concentrations for 72 h. At the end of drug exposure, cells were fixed with 50% trichloroacetic acid at 4 °C. After washing with distilled water, cells were stained with 0.1% sulforhodamine B, dissolved in 1% acetic acid (50 μL/well) for 30 min, and, subsequently, washed with 1% acetic acid to remove the unbound stain. The protein-bound stain was solubilized with 100 μL of 10 mM unbuffered Tris base, and the cell density was determined using a […] (wavelength 540 nm). Results are expressed as IC50 values (μM) ± SD.

[2] = test system: HT-29 (colorectal adenocarcinoma); assay: Sulforhodamine B in vitro growth inhibition assay, HT-29; assay type: cell-based, human; conditions: for Selectivity Index (SI) MCF-10/HT-29: IC50 in non-cancerogenic cell line / IC50 in cancer cell line; for IC50: Homo sapiens, HT-29, sulforhodamine B assay, 72 h of treatment, IC50 ± SD
Description: as §1, §2

[3] = test system: PC-3 (prostate adenocarcinoma); assay: Sulforhodamine B in vitro growth inhibition assay, PC-3; assay type: cell-based, human; conditions: for Selectivity Index (SI) MCF-10/PC-3: IC50 in non-cancerogenic cell line / IC50 in cancer cell line; for IC50: Homo sapiens, sulforhodamine B assay, 72 h of treatment, IC50 ± SD
Description: as §1, §2

[4] = test system: MCF-7 (breast adenocarcinoma); conditions: cited from earlier work; for IC50: literature value, same experimental conditions
[5] = test system: HT-29 (colorectal adenocarcinoma); parameters: method as in PMID 25412045; conditions: literature value, same experimental conditions; cited from earlier work
[6] = test system: PC-3 (prostate adenocarcinoma); conditions: literature value, same experimental conditions; cited from earlier work
[7] = test system: MCF-10 control cells (normal breast epithelium); conditions: literature value; cited from earlier work
[8] = test system: MCF-10 control cells (normal breast epithelium); assay: Sulforhodamine B in vitro growth inhibition assay, MCF-10 control cells; assay type: cell-based; conditions: Homo sapiens, MCF10, 72 h of treatment, IC50 ± SD, non-tumoral cells
Description: as §1, §2

[9] = test system: caspases 3 and 7 on MCF-7 cells; assay: Caspase-Glo 3/7 assay; assay type: cell-based, human; conditions: 50 μM, 24 h
Description: To determine the cell death type induced by the most promising aryl-drimane esters, we evaluated their capacity to induce apoptosis through the activation of caspases 3 and 7 on MCF-7 cells. For this purpose, 6a, 6e, 6f, 8c, 8f, and 8g were incubated for 24 h on MCF-7 cells at a concentration of 50 μM, close to the IC50 values for cytotoxicity in most compounds. […] In summary, these drimane derivatives induced apoptosis in the MCF-7 cell line, showing a potential antitumoral effect.
The activity of caspase 3/7 in treated MCF-7 cells was determined using a Caspase-Glo-3/7 Assay kit (Promega, UK—Cat. No G8090). The caspase-Glo 3/7 assay is a homogenous, luminescent assay that measures caspase-3 and -7 activities, both key-players in apoptosis. […] Luminescence was proportional to the amount of caspase present. MCF-7 cells (1 × 10^4 cells per well) were grown in a 96-well white plate and were allowed to adhere overnight. The cells were then treated for 24 h with the synthesized compounds (50 µM), with the inclusion of a blank as a control. After treatment, the Caspase-Glo® 3/7 was prepared according to the manufacturer’s guidelines. Briefly, 100 μL of Caspase-Glo 3/7 reagent was added to 100 μL of culture medium containing the cells previously treated in each well. The content was mixed gently by placing the plate on a shaker for 30 s, and the plate was incubated at room temperature in the dark for 1 h before luminescence was read on a luminometer (Berthold Sirius Single Tube Luminometer, Pforzheim, Germany). Fold change in caspase activity was obtained by first subtracting the luminescence value for the blank well from every other value, and then, expressing the average luminescence of each treatment as a fold change with respect to the average luminescence of the negative control.

With `O=c1[nH]cc(F)c(=O)[nH]1` [5-FU, 5-fluorouracil] the “Selectivity Index (SI) MCF-10/MCF-7” value [1] was 0.02, the “Selectivity Index (SI) MCF-10/HT-29” value [2] was 0.2 and the “Selectivity Index (SI) MCF-10/PC-3” value [3] was 0.03. For the same compound, the IC50 [4] was 22.3 ± 0.2 µM, the IC50 [5] was 2.9 ± 0.7 µM and the IC50 [6] was 16.4 ± 0.6 µM. For the same compound, the IC50 [7] was under 0.5 µM.
In the case of `COc1cc(C)cc(OC(=O)C2=C(C)CCC3C(C)(C)CCC[C@]23C)c1` (stereo partly drawn) [6b, 3-Methoxy-5-methylphenyl-(8aS)-2,5,5,8a-tetramethyl-3,4,4a,5,6,7,8,8a-octahydronaphthalene-1-carboxylate], the IC50 [1] is reported as over 100 µM, the IC50 [2] is reported as over 100 µM and the IC50 [3] is reported as over 100 µM. It also gave an IC50 [8] of 67.2 ± 15.3 µM.
`COC(=O)c1c(C)cc(OC(=O)C2=C(C)CCC3C(C)(C)CCC[C@]23C)cc1O` (stereo partly drawn) [6c, 3-Hydroxy-4-(methoxycarbonyl)-5-methylphenyl-(8aS)-2,5,5,8a-tetramethyl-3,4,4a,5,6,7,8,8a-octahydronaphthalene-1-carboxylate] showed an IC50 [1] of over 100 µM, an IC50 [2] of over 100 µM and an IC50 [3] of over 100 µM. For the same compound, the IC50 [8] was over 100 µM and the melting point was 124 °C.
`COC(=O)c1c(C)cc(OC(=O)C2=C(C)CCC3C(C)(C)CCC[C@]23C)c(C)c1O` (stereo partly drawn) [6d, 3-Hydroxy-4-(methoxycarbonyl)-2,5-dimethylphenyl-(8aS)-2,5,5,8a-tetramethyl-3,4,4a,5,6,7,8,8a-octahydronaphthalene-1-carboxylate] showed an IC50 [1] of over 100 µM, an IC50 [2] of over 100 µM and an IC50 [3] of over 100 µM. It also gave an IC50 [8] of over 100 µM and a melting point of 128 °C.
With `COc1cc(OC(=O)C2=C(C)CCC3C(C)(C)CCC[C@]23C)ccc1C=O` (stereo partly drawn) [6e, 4-Formyl-3-methoxyphenyl-(8aS)-2,5,5,8a-tetramethyl-3,4,4a,5,6,7,8,8a-octahydronaphthalene-1-carboxylate] the IC50 [1] was 38.3 ± 2.6 µM, the “Selectivity Index (SI) MCF-10/MCF-7” value [1] was 1.3 and the IC50 [2] was 38.1 ± 2 µM. The “Selectivity Index (SI) MCF-10/HT-29” value [2] was 1.3, the IC50 [3] was 52.9 ± 8.2 µM and the “Selectivity Index (SI) MCF-10/PC-3” value [3] was 0.9. The IC50 [8] was 50 ± 8.9 µM and the “caspases-3/7 activity over the control” value [9] was “two-fold”.
With `COc1cc(C=O)ccc1OC(=O)C1=C(C)CCC2C(C)(C)CCC[C@]12C` (stereo partly drawn) [6f, 4-Formyl-2-methoxyphenyl-(8aS)-2,5,5,8a-tetramethyl-3,4,4a,5,6,7,8,8a-octahydronaphthalene-1-carboxylate] the IC50 [1] was 22.4 ± 1 µM, the “Selectivity Index (SI) MCF-10/MCF-7” value [1] was 0.7 and the IC50 [2] was 58 ± 3.9 µM. The “Selectivity Index (SI) MCF-10/HT-29” value [2] was 0.3, the IC50 [3] was 30.9 ± 2.5 µM and the “Selectivity Index (SI) MCF-10/PC-3” value [3] was 0.5. The IC50 [8] was 16.5 ± 0.9 µM and the “caspases-3/7 activity over the control” value [9] was “two-fold”.
Compound `COc1cc(OC)cc(C(=O)OC[C@H]2C(C)=CCC3C(C)(C)CCC[C@@]32C)c1` (stereo partly drawn) [8a, ((1S,8aS)-2,5,5,8a-tetramethyl-1,4,4a,5,6,7,8,8a-octahydronaphthalen-1-yl)methyl-3,5-dimethoxybenzoate] has an IC50 [1] of over 100 µM, an IC50 [2] of over 100 µM and an IC50 [3] of over 100 µM. For the same compound, the IC50 [8] was 44.8 ± 3.1 µM.
In the case of `COc1cc(C(=O)OC[C@H]2C(C)=CCC3C(C)(C)CCC[C@@]32C)cc(OC)c1C` (stereo partly drawn) [8b, ((1S,8aS)-2,5,5,8a-tetramethyl-1,4,4a,5,6,7,8,8a-octahydronaphthalen-1-yl)methyl 3,5-dimethoxy-4-methylbenzoate], the IC50 [1] is reported as over 100 µM, the IC50 [2] is reported as over 100 µM and the IC50 [3] is reported as over 100 µM. The IC50 [8] was 21.2 ± 3.1 µM.
Compound `CC1=CCC2C(C)(C)CCC[C@]2(C)[C@H]1COC(=O)c1cc(O)c(C)c(O)c1` (stereo partly drawn) [8c, ((1S,8aS)-2,5,5,8a-tetramethyl-1,4,4a,5,6,7,8,8a-octahydronaphthalen-1-yl)methyl-3,5-dihydroxy-4-methylbenzoate] has an IC50 [1] of 35.9 ± 6.4 µM, an IC50 [2] of over 100 µM and an IC50 [3] of over 100 µM. For the same compound, the IC50 [8] was over 100 µM and the “caspases-3/7 activity over the control” value [9] was “two-fold”.
With `COc1cc(C(=O)OC[C@H]2C(C)=CCC3C(C)(C)CCC[C@@]32C)cc(OC)c1O` (stereo partly drawn) [8d, ((1S,8aS)-2,5,5,8a-tetramethyl-1,4,4a,5,6,7,8,8a-octahydronaphthalen-1-yl)methyl-4-hydroxy-3,5-dimethoxybenzoate] the IC50 [1] was 18.4 ± 0.5 µM, the “Selectivity Index (SI) MCF-10/MCF-7” value [1] was 0.9 and the IC50 [2] was 44.7 ± 6.7 µM. For the same compound, the “Selectivity Index (SI) MCF-10/HT-29” value [2] was 0.4, the IC50 [3] was 33.3 ± 2.9 µM and the “Selectivity Index (SI) MCF-10/PC-3” value [3] was 0.5. The IC50 [8] was 16.5 ± 0.5 µM and the melting point was 105 °C.
In the case of `COc1cc(C(=O)OC[C@H]2C(C)=CCC3C(C)(C)CCC[C@@]32C)cc(OC)c1OC` (stereo partly drawn) [8e, ((1S,8aS)-2,5,5,8a-tetramethyl-1,4,4a,5,6,7,8,8a-octahydronaphthalen-1-yl)methyl-3,4,5-trimethoxybenzoate], the IC50 [1] is reported as 51 ± 10 µM, the “Selectivity Index (SI) MCF-10/MCF-7” value [1] is reported as 0.6 and the IC50 [2] is reported as 51.5 ± 3.2 µM. The “Selectivity Index (SI) MCF-10/HT-29” value [2] was 0.6, the IC50 [3] was 76.9 ± 10.2 µM and the “Selectivity Index (SI) MCF-10/PC-3” value [3] was 0.4. The IC50 [8] was 32.1 ± 8.3 µM.
`COc1ccc(C(=O)OC[C@H]2C(C)=CCC3C(C)(C)CCC[C@@]32C)c(OC)c1OC` (stereo partly drawn) [8f, ((1S,8aS)-2,5,5,8a-tetramethyl-1,4,4a,5,6,7,8,8a-octahydronaphthalen-1-yl)methyl-2,3,4-trimethoxybenzoate] gave an IC50 [1] of 6.2 ± 0.5 µM, an IC50 [2] of 26.2 ± 5.4 µM and an IC50 [3] of 7.1 ± 1.1 µM. For the same compound, the IC50 [8] was 6.8 ± 0.9 µM and the “caspases-3/7 activity over the control” value [9] was 3.5 fold.
For `COc1cc(OC)c(C(=O)OC[C@H]2C(C)=CCC3C(C)(C)CCC[C@@]32C)cc1OC` (stereo partly drawn) [8g, ((1S,8aS)-2,5,5,8a-tetramethyl-1,4,4a,5,6,7,8,8a-octahydronaphthalen-1-yl)methyl-2,4,5-trimethoxybenzoate], the IC50 [1] was 28.7 ± 3.5 µM, the “Selectivity Index (SI) MCF-10/MCF-7” value [1] was 0.6 and the IC50 [2] was 31.3 ± 2 µM. The “Selectivity Index (SI) MCF-10/HT-29” value [2] was 0.5, the IC50 [3] was 27.7 ± 2.6 µM and the “Selectivity Index (SI) MCF-10/PC-3” value [3] was 0.6. The IC50 [8] was 16.3 ± 0.6 µM and the “caspases-3/7 activity over the control” value [9] was 3.5 fold.
For `CC1=CCC2C(C)(C)CCCC2(C)C1CO` (stereo not drawn) [Drimenol], the IC50 [4] is given as over 100 µM, the “cytotoxicity” value ([4]; two cell lines, ref Montenegro et al.) is given as “inactive” and the IC50 [6] is given as over 100 µM.
